From PubChem BioAssay AID1918939 (Molecular Pharmacology Branch, DTP, NCI, 2023)

Tested on: 653999-131-R-J2-PDC complex spheroid viability
Test: Anticancer human tumor 653999-131-R-J2-PDC patient-derived lung adenocarcinoma cell line growth inhibition
Conditions: for IC50: curve of first compound; for viability, T/C: stronger effect = lower value; active means viability on the fitted dose curve at most 10% of control; inactive means the rest
Outline: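 Complex spheroids of tumor cells with HUVEC and human MSCs, exposed to iadademstat combined with other agents. Each agent tested in half-log steps from near clinical Cmax (else 10 microM top), DMSO ≤0.25%.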

[1] = second compound 0.1 µM, first compound 0.000316 µM
[2] = second compound 0.1 µM, first compound 0.001 µM
[3] = second compound 0.1 µM, first compound 0.00316 µM
[4] = second compound 0.1 µM, first compound 0.01 µM
[5] = second compound 0.1 µM, first compound 0.0316 µM
[6] = second compound 0.1 µM, first compound 0.1 µM
[7] = second compound 0.316 µM, first compound 0.000316 µM
[8] = second compound 0.316 µM, first compound 0.001 µM
[9] = second compound 0.316 µM, first compound 0.00316 µM
[10] = second compound 0.316 µM, first compound 0.01 µM
[11] = second compound 0.316 µM, first compound 0.0316 µM
[12] = second compound 0.316 µM, first compound 0.1 µM
[13] = second compound 1 µM, first compound 0.000316 µM
[14] = second compound 1 µM, first compound 0.001 µM
[15] = second compound 1 µM, first compound 0.00316 µM
[16] = second compound 1 µM, first compound 0.01 µM
[17] = second compound 1 µM, first compound 0.0316 µM
[18] = second compound 1 µM, first compound 0.1 µM
[19] = second compound 3.16 µM, first compound 0.000316 µM
[20] = second compound 3.16 µM, first compound 0.001 µM
[21] = second compound 3.16 µM, first compound 0.00316 µM
[22] = second compound 3.16 µM, first compound 0.01 µM
[23] = second compound 3.16 µM, first compound 0.0316 µM
[24] = second compound 3.16 µM, first compound 0.1 µM
[25] = second compound 10 µM, first compound 0.000316 µM
[26] = second compound 10 µM, first compound 0.001 µM
[27] = second compound 10 µM, first compound 0.00316 µM
[28] = second compound 10 µM, first compound 0.01 µM
[29] = second compound 10 µM, first compound 0.0316 µM
[30] = second compound 10 µM, first compound 0.1 µM
[31] = second compound 0.1 µM, first compound 0.00949 µM
[32] = second compound 0.1 µM, first compound 0.03 µM
[33] = second compound 0.1 µM, first compound 0.0949 µM
[34] = second compound 0.1 µM, first compound 0.3 µM
[35] = second compound 0.1 µM, first compound 0.949 µM
[36] = second compound 0.1 µM, first compound 3 µM
[37] = second compound 0.316 µM, first compound 0.00949 µM
[38] = second compound 0.316 µM, first compound 0.03 µM
[39] = second compound 0.316 µM, first compound 0.0949 µM
[40] = second compound 0.316 µM, first compound 0.3 µM
[41] = second compound 0.316 µM, first compound 0.949 µM
[42] = second compound 0.316 µM, first compound 3 µM
[43] = second compound 1 µM, first compound 0.00949 µM
[44] = second compound 1 µM, first compound 0.03 µM
[45] = second compound 1 µM, first compound 0.0949 µM
[46] = second compound 1 µM, first compound 0.3 µM
[47] = second compound 1 µM, first compound 0.949 µM
[48] = second compound 1 µM, first compound 3 µM
[49] = second compound 3.16 µM, first compound 0.00949 µM
[50] = second compound 3.16 µM, first compound 0.03 µM
[51] = second compound 3.16 µM, first compound 0.0949 µM
[52] = second compound 3.16 µM, first compound 0.3 µM
[53] = second compound 3.16 µM, first compound 0.949 µM
[54] = second compound 3.16 µM, first compound 3 µM
[55] = second compound 10 µM, first compound 0.00949 µM
[56] = second compound 10 µM, first compound 0.03 µM
[57] = second compound 10 µM, first compound 0.0949 µM
[58] = second compound 10 µM, first compound 0.3 µM
[59] = second compound 10 µM, first compound 0.949 µM
[60] = second compound 10 µM, first compound 3 µM
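Further: spheroids exposed to agents for seven days before readout.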

CC(C)CC(NC(=O)C(Cc1ccccc1)NC(=O)c1cnccn1)B(O)O (stereo not given) + NC1CCC(NC2CC2c2ccccc2)CC1
2.28 nM: IC50 (second compound 0.1 µM)
active: viability, T/C [4] 3.82% | viability, T/C [5] 2.01% | viability, T/C [6] 1.51% | viability, T/C [10] 5.95% | viability, T/C [11] 0.76% | viability, T/C [12] 1.38% | viability, T/C [16] 4.39% | viability, T/C [17] 1.9% | viability, T/C [18] 1.12% | viability, T/C [22] 3.37% | viability, T/C [23] 1.02% | viability, T/C [24] 2.22% | viability, T/C [28] 2.92% | viability, T/C [29] 1.36% | viability, T/C [30] 0.56%
2.96 nM: IC50 (second compound 1 µM)
inactive: viability, T/C [1] 108% | viability, T/C [2] 107% | viability, T/C [3] 27.5% | viability, T/C [7] 123% | viability, T/C [8] 124% | viability, T/C [9] 30.1% | viability, T/C [13] 115% | viability, T/C [14] 115% | viability, T/C [15] 46.1% | viability, T/C [19] 97.6% | viability, T/C [20] 123% | viability, T/C [21] 27.4% | viability, T/C [25] 117% | viability, T/C [26] 119% | viability, T/C [27] 18.5%
2.31 nM: IC50 (second compound 3.16 µM)
2.2 nM: IC50 (second compound 10 µM)
2.47 nM: IC50 (second compound 0.316 µM)

CC(C)CC(NC(=O)CNC(=O)c1cc(Cl)ccc1Cl)B1OC(=O)CC(CC(=O)O)(C(=O)O)O1 (stereo not given) + NC1CCC(NC2CC2c2ccccc2)CC1
inactive: viability, T/C [1] 98.5% | viability, T/C [2] 102% | viability, T/C [3] 106% | viability, T/C [4] 48.4% | viability, T/C [5] 28.5% | viability, T/C [6] 10.7% | viability, T/C [7] 80.7% | viability, T/C [8] 102% | viability, T/C [9] 99% | viability, T/C [10] 60.4% | viability, T/C [11] 21.9% | viability, T/C [12] 8.68% | viability, T/C [13] 87.8% | viability, T/C [14] 90.5% | viability, T/C [15] 95.8% | viability, T/C [16] 52.7% | viability, T/C [17] 19.4% | viability, T/C [18] 10.1% | viability, T/C [19] 99.1% | viability, T/C [20] 85.4% | viability, T/C [21] 106% | viability, T/C [22] 53.1% | viability, T/C [23] 26.5% | viability, T/C [24] 9.89% | viability, T/C [25] 98.2% | viability, T/C [26] 104% | viability, T/C [27] 122% | viability, T/C [28] 55.4% | viability, T/C [29] 18.4% | viability, T/C [30] 5%
9.68 nM: IC50 (second compound 0.1 µM)
10.9 nM: IC50 (second compound 1 µM)
11.1 nM: IC50 (second compound 3.16 µM)
11.5 nM: IC50 (second compound 10 µM)
13.9 nM: IC50 (second compound 0.316 µM)

COc1cc(Nc2ncc3c(n2)-c2ccc(Cl)cc2C(c2c(F)cccc2OC)=NC3)ccc1C(=O)O + NC1CCC(NC2CC2c2ccccc2)CC1
> 1000 nM: IC50 (second compound 0.1 µM) | IC50 (second compound 0.316 µM) | IC50 (second compound 1 µM) | IC50 (second compound 3.16 µM) | IC50 (second compound 10 µM)
inactive: viability, T/C [3] 78.7% | viability, T/C [4] 89.2% | viability, T/C [5] 74.2% | viability, T/C [6] 78.5% | viability, T/C (second compound 0.1 µM, first compound 0.316 µM) 73.7% | viability, T/C (second compound 0.1 µM, first compound 1 µM) 76.1% | viability, T/C [9] 85.4% | viability, T/C [10] 72.8% | viability, T/C [11] 63.9% | viability, T/C [12] 68.1% | viability, T/C (second compound 0.316 µM, first compound 0.316 µM) 71.3% | viability, T/C (second compound 0.316 µM, first compound 1 µM) 75.6% | viability, T/C [15] 76.6% | viability, T/C [16] 84.3% | viability, T/C [17] 78.6% | viability, T/C [18] 69.2% | viability, T/C (second compound 1 µM, first compound 0.316 µM) 61.9% | viability, T/C (second compound 1 µM, first compound 1 µM) 74.9% | viability, T/C [21] 92.2% | viability, T/C [22] 73.9% | viability, T/C [23] 79.2% | viability, T/C [24] 65.6% | viability, T/C (second compound 3.16 µM, first compound 0.316 µM) 79.7% | viability, T/C (second compound 3.16 µM, first compound 1 µM) 72% | viability, T/C [27] 92.9% | viability, T/C [28] 81.4% | viability, T/C [29] 71.7% | viability, T/C [30] 71.2% | viability, T/C (second compound 10 µM, first compound 0.316 µM) 60.9% | viability, T/C (second compound 10 µM, first compound 1 µM) 79.7%

NS(=O)(=O)OCC1CC(n2ccc3c(NC4CCc5ccccc54)ncnc32)CC1O (stereo not given) + NC1CCC(NC2CC2c2ccccc2)CC1
inactive: viability, T/C [31] 97.5% | viability, T/C [32] 80.8% | viability, T/C [33] 106% | viability, T/C [34] 107% | viability, T/C [35] 54.7% | viability, T/C [36] 61.1% | viability, T/C [37] 97.8% | viability, T/C [38] 81.6% | viability, T/C [39] 105% | viability, T/C [40] 114% | viability, T/C [41] 55.6% | viability, T/C [42] 50.7% | viability, T/C [43] 94.4% | viability, T/C [44] 92.8% | viability, T/C [45] 91.2% | viability, T/C [46] 116% | viability, T/C [47] 60.5% | viability, T/C [48] 56.2% | viability, T/C [49] 105% | viability, T/C [50] 98.7% | viability, T/C [51] 100% | viability, T/C [52] 105% | viability, T/C [53] 58.6% | viability, T/C [54] 59.2% | viability, T/C [55] 116% | viability, T/C [56] 101% | viability, T/C [57] 105% | viability, T/C [58] 118% | viability, T/C [59] 63.7% | viability, T/C [60] 54.2%
> 3000 nM: IC50 (second compound 0.1 µM) | IC50 (second compound 0.316 µM) | IC50 (second compound 1 µM) | IC50 (second compound 3.16 µM) | IC50 (second compound 10 µM)

Nc1ccccc1NC(=O)c1ccc(CNC(=O)OCc2cccnc2)cc1 + NC1CCC(NC2CC2c2ccccc2)CC1
active: viability, T/C [36] 9.78% | viability, T/C [42] 8.88% | viability, T/C [48] 8.55% | viability, T/C [54] 8.4% | viability, T/C [60] 5.06%
294 nM: IC50 (second compound 3.16 µM)
301 nM: IC50 (second compound 10 µM)
228 nM: IC50 (second compound 0.316 µM)
394 nM: IC50 (second compound 1 µM)
inactive: viability, T/C [31] 68.4% | viability, T/C [32] 68.1% | viability, T/C [33] 57.1% | viability, T/C [34] 54.3% | viability, T/C [35] 35.8% | viability, T/C [37] 70.5% | viability, T/C [38] 61.3% | viability, T/C [39] 56.1% | viability, T/C [40] 49% | viability, T/C [41] 33.2% | viability, T/C [43] 75.3% | viability, T/C [44] 69.7% | viability, T/C [45] 65.1% | viability, T/C [46] 52.4% | viability, T/C [47] 38.5% | viability, T/C [49] 69.6% | viability, T/C [50] 77.9% | viability, T/C [51] 57.1% | viability, T/C [52] 46.9% | viability, T/C [53] 36.3% | viability, T/C [55] 74.6% | viability, T/C [56] 62% | viability, T/C [57] 54.6% | viability, T/C [58] 57.4% | viability, T/C [59] 30.8%
349 nM: IC50 (second compound 0.1 µM)

O=C(C=Cc1cccc(S(=O)(=O)Nc2ccccc2)c1)NO + NC1CCC(NC2CC2c2ccccc2)CC1
449 nM: IC50 (second compound 10 µM)
538 nM: IC50 (second compound 0.316 µM)
513 nM: IC50 (second compound 1 µM)
active: viability, T/C [36] 3.54% | viability, T/C [42] 3.12% | viability, T/C [48] 2.35% | viability, T/C [54] 2.77% | viability, T/C [60] 3.12%
435 nM: IC50 (second compound 0.1 µM)
501 nM: IC50 (second compound 3.16 µM)
inactive: viability, T/C [31] 81.9% | viability, T/C [32] 97.9% | viability, T/C [33] 108% | viability, T/C [34] 56.1% | viability, T/C [35] 28.6% | viability, T/C [37] 89.3% | viability, T/C [38] 82.6% | viability, T/C [39] 91.4% | viability, T/C [40] 70.3% | viability, T/C [41] 29.3% | viability, T/C [43] 96.4% | viability, T/C [44] 100% | viability, T/C [45] 88.3% | viability, T/C [46] 71.6% | viability, T/C [47] 26.2% | viability, T/C [49] 98.4% | viability, T/C [50] 83.1% | viability, T/C [51] 92.4% | viability, T/C [52] 61.9% | viability, T/C [53] 32.3% | viability, T/C [55] 95.4% | viability, T/C [56] 96% | viability, T/C [57] 101% | viability, T/C [58] 60.3% | viability, T/C [59] 25.8%
